Results as given in patent US10870647B2, “Imidazopyridine derivative, method for preparing same, and pharmaceutical composition containing same as active ingredient for preventing or treating cancer” (DAEGU-GYEONGBUK MEDICAL INNOVATION FOUNDATION, priority 2016, dated 2020).

Legend:
Experiment in all cases: Kinase selectivity, scanMAX Kinase assay panel (DiscoverX), % control at 1 uM
Assay type in all cases: binding
[1] = target: T1, scanMAX Kinase assay panel (Homo sapiens, UniProt O43353); settings: RIPK2; 1 uM; read-out: Percent Control (%)
T1 construct: purchased DiscoverX
Summary of the method: (§1)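 Read-out is percent of control, derived from the signal with compound relative to positive and negative controls: (compound − positive)/(negative − positive) × 100. Each enzyme received test drug at 1 uM in DMSO, and values under 35% count as active.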

[2] = target: T2, scanMAX Kinase assay panel (Homo sapiens, UniProt P17948); settings: FLT1; 1 uM; read-out: Percent Control (%)
T2 construct: purchased DiscoverX
Summary of the method: as §1

[3] = target: T3, scanMAX Kinase assay panel (Homo sapiens, UniProt P35590); settings: TIE1; 1 uM; read-out: Percent Control (%)
T3 construct: purchased DiscoverX
Summary of the method: as §1

[4] = target: T4, scanMAX Kinase assay panel (Homo sapiens, UniProt Q13627); settings: DYRK1A; 1 uM; read-out: Percent Control (%)
T4 construct: purchased DiscoverX
Summary of the method: as §1

[5] = target: T5, scanMAX Kinase assay panel (Homo sapiens, UniProt Q8NE63); settings: HIPK4; 1 uM; read-out: Percent Control (%)
T5 construct: purchased DiscoverX
T5 sequence (Q8NE63 1-616): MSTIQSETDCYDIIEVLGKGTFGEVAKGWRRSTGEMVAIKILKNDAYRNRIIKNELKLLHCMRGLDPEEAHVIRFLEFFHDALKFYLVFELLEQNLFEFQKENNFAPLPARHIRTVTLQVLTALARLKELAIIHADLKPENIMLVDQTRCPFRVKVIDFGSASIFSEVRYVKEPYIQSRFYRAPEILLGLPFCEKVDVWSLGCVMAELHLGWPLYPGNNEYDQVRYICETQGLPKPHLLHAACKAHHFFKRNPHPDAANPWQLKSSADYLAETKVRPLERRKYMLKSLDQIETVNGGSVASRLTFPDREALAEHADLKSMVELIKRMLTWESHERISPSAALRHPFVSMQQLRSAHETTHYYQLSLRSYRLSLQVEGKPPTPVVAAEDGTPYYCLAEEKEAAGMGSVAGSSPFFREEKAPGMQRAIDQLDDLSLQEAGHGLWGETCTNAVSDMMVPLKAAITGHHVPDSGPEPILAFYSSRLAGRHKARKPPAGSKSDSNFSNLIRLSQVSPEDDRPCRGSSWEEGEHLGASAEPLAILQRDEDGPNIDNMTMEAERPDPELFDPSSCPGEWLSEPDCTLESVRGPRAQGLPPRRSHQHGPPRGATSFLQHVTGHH
Summary of the method: as §1

[6] = target: T6, scanMAX Kinase assay panel (Homo sapiens, UniProt Q8TDC3); settings: BRSK1; 1 uM; read-out: Percent Control (%)
T6 construct: purchased DiscoverX
T6 sequence (Q8TDC3 1-778): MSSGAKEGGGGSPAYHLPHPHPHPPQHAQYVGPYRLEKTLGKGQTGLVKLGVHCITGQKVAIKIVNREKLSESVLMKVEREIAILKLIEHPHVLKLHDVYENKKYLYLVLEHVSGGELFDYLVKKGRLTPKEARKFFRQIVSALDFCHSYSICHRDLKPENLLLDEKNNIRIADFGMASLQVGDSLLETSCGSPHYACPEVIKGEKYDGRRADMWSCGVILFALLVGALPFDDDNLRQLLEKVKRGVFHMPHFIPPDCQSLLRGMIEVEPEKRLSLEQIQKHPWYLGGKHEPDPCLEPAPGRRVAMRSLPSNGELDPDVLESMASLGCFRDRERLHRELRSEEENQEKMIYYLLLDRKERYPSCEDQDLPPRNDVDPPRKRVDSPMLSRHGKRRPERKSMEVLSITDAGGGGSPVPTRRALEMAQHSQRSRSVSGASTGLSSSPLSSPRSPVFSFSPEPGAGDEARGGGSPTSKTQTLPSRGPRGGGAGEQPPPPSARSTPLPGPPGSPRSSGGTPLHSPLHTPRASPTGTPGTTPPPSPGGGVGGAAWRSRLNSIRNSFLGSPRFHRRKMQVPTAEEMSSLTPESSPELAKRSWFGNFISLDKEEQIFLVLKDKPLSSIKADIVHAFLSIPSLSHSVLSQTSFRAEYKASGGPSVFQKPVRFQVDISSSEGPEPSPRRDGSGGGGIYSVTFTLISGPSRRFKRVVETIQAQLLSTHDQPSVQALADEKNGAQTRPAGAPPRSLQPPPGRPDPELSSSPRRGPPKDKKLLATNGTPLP
Summary of the method: as §1

[7] = target: T7, scanMAX Kinase assay panel (Homo sapiens, UniProt Q96SB4); settings: SRPK1; 1 uM; read-out: Percent Control (%)
T7 construct: purchased DiscoverX
Summary of the method: as §1

[8] = target: T8, scanMAX Kinase assay panel (Homo sapiens, UniProt Q9NRH2); settings: SNRK; 1 uM; read-out: Percent Control (%)
T8 construct: purchased DiscoverX
T8 sequence (Q9NRH2 1-765): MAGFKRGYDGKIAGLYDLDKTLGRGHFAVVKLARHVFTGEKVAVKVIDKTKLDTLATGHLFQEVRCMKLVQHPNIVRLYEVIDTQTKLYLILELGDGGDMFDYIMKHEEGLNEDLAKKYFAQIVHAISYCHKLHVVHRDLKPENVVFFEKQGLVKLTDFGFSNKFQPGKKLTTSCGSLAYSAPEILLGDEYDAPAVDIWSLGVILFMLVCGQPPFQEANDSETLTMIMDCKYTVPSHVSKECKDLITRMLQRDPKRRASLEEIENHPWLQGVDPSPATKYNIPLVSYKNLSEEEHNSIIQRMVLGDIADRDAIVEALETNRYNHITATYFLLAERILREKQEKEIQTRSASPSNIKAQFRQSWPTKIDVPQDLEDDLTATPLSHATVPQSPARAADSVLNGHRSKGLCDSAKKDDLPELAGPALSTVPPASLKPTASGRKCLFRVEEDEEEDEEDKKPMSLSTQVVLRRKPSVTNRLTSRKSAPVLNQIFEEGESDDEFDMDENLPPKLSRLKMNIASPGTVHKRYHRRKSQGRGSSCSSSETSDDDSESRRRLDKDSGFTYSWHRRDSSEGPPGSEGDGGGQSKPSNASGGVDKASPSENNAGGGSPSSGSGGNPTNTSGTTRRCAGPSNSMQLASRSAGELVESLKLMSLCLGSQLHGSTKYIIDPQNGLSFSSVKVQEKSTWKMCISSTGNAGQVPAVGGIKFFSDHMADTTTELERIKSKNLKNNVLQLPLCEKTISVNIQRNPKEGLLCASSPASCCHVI
Summary of the method: as §1

T7 sequence (Q96SB4 whole entry): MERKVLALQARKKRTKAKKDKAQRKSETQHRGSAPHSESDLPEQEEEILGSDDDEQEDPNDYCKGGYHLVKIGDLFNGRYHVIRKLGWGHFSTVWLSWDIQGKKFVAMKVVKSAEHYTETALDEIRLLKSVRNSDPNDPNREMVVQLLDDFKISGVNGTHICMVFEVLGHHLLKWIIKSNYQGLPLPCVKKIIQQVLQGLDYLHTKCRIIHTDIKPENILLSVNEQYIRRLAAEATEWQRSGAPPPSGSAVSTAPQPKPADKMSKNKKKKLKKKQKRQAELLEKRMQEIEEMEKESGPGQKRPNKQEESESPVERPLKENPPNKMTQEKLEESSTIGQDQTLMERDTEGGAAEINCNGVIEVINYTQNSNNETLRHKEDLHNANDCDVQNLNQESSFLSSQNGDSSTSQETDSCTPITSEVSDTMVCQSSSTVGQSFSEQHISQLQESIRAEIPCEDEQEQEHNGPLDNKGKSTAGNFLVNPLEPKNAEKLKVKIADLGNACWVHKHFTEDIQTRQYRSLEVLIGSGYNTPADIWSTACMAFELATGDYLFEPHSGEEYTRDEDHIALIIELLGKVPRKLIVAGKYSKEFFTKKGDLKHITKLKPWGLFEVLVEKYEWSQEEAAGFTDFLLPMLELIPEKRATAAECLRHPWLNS
T1 sequence (O43353 whole entry): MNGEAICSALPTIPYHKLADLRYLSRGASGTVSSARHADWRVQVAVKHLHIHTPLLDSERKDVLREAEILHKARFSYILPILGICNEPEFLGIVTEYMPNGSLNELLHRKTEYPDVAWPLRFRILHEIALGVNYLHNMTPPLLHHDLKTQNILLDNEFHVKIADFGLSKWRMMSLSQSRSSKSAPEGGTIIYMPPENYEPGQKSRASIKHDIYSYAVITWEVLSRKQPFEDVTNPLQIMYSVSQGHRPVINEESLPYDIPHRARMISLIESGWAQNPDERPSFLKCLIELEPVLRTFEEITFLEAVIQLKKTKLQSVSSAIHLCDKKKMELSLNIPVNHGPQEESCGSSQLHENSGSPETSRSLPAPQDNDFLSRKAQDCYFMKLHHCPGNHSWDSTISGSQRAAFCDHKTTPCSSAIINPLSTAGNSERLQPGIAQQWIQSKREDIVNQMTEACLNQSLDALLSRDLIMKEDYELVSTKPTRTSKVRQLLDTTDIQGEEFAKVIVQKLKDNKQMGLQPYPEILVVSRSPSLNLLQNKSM
T2 sequence (P17948 27-1338): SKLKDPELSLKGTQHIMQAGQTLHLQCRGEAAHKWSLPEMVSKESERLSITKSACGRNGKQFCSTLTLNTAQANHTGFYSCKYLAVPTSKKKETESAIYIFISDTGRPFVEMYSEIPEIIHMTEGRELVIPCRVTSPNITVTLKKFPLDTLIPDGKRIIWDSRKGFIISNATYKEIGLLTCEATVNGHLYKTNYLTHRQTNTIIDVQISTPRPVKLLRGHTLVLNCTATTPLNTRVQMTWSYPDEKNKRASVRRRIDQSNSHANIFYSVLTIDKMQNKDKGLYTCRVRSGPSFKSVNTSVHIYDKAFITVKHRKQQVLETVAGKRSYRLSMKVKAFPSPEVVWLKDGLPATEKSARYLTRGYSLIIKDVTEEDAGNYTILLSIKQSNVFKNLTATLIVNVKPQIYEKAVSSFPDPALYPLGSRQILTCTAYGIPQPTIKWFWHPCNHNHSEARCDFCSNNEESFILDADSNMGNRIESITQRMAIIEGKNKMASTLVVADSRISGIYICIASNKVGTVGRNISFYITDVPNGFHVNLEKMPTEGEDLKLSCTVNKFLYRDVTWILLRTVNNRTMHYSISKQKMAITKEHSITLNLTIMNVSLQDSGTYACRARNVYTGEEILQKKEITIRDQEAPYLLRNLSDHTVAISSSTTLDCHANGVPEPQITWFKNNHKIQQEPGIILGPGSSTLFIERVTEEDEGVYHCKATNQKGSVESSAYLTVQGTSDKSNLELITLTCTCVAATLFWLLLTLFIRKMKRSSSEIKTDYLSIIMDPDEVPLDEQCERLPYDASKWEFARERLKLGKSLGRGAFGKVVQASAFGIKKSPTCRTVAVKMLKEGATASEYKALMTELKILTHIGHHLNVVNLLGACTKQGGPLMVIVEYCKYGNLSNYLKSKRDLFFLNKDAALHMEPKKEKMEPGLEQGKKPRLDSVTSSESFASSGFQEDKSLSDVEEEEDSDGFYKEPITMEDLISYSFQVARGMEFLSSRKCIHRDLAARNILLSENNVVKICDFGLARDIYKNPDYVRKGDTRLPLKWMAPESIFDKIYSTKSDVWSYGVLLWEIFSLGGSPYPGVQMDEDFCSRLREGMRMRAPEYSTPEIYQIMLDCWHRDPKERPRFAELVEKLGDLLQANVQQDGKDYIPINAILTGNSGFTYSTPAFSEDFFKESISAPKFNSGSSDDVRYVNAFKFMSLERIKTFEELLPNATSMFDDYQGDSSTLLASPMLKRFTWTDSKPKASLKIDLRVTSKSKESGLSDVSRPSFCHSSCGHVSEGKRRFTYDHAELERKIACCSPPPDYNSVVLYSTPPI
T3 sequence (P35590 22-1138): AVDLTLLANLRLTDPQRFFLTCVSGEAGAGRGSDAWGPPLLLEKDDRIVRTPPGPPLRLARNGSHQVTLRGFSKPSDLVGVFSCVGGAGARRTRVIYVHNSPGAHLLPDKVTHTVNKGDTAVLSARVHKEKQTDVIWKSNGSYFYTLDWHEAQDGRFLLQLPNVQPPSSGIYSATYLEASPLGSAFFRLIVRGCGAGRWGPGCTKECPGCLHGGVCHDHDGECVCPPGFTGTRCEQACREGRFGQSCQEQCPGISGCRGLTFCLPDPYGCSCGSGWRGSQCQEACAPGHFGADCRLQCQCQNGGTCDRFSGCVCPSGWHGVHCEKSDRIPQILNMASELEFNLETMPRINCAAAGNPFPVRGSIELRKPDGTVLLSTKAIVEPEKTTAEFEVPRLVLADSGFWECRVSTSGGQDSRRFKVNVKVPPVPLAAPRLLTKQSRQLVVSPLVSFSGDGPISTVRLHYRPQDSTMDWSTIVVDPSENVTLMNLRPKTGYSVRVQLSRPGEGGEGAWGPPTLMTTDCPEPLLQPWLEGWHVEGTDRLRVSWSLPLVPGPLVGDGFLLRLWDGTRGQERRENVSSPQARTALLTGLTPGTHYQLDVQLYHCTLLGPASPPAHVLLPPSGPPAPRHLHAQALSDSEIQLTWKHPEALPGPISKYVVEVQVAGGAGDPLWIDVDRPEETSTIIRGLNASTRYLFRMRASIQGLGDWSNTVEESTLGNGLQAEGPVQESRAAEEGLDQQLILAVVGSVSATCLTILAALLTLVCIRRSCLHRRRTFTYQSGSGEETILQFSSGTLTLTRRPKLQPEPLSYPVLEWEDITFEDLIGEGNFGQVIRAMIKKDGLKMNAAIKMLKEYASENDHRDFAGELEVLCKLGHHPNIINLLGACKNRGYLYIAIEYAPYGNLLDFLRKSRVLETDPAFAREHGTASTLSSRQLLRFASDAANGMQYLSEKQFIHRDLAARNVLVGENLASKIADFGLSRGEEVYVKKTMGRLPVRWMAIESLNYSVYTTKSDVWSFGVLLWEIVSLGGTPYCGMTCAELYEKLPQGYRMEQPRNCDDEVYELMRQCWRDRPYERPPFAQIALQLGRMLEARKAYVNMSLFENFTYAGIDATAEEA

Compound | remaining binding at 1 µM [1] [%] | remaining binding at 1 µM [2] [%] | remaining binding at 1 µM [3] [%] | remaining binding at 1 µM [4] [%] | remaining binding at 1 µM [5] [%] | remaining binding at 1 µM [6] [%] | remaining binding at 1 µM [7] [%] | remaining binding at 1 µM [8] [%]
Cc1ccc(C(=O)Nc2ccc(CN3CCN(C)CC3)c(C(F)(F)F)c2)cc1C#Cc1cnc2c(Nc3cnn(C)c3)cccn12 [Example 1, 4-methyl-3-((8-((1-methyl-1H-pyrazol-4-yl)amino)imidazo[1,2-a]pyridin-3-yl)ethynyl)-N-(4-((4-methylpiperazin-1-yl)methyl)-3-(trifluoromethyl)phenyl)benzamide] | 7 | 3 | 2 | 100 | 2 | 100 | 3 | 84
Cc1cn(-c2cc(NC(=O)c3ccc(C)c(C#Cc4cnc5c(Nc6cnn(C)c6)cccn45)c3)cc(C(F)(F)F)c2)cn1 [Example 12, 4-methyl-N-(3-(4-methyl-1H-imidazol-1-yl)-5-(trifluoromethyl)phenyl)-3-((8-((1-methyl-1H-pyrazol-4-yl)amino)imidazo[1,2-a]pyridin-3-yl)ethynyl)benzamide] | 22 | 16 | 26 | 97 | 66 | 83 | 69 | 100
Cc1ccc(NC(=O)C2(C(=O)Nc3ccc(F)cc3)CC2)cc1C#Cc1cnc2c(Nc3cnn(C(C)C)c3)cccn12 [Example 78] | 99 | 84 | 27 | 100 | 84 | 100 | 97 | 95
